Test: AERSMine mining of FAERS reports: lithium toxicity and inversely correlated drugs
Set-up: species or system patients
Details: for safety signal IC for lithium-specific neurological adverse events: human
Excerpt: To establish lithium-adverse event correlation, AERSMine uses multiple quantitative elements such as AE incidence rate, multiple hypothesis testing, relative risk, and safety signals. For this example, the following analytical parameters were used: total reports per adverse event were set to ≥2,000; adverse event and lithium intake co-reported in at least 10 reports; RR set to ≥2; FDR-corrected p-value of <0.001 (Benjamini and Hochberg); and safety signal (i.e., IC) set to >0.
Additionally, by excluding patients with comorbidities (e.g., diabetes) reported to worsen mental health and exacerbate neurological symptoms from the analysis, allows AERSMine to accurately represent potentially lithium-specific adverse events (e.g., aggression, irritability, anger, suicidal tendencies, tremors, and other neurological symptoms, movement disorders, personality changes, etc.). The inventors then sought to determine if AERSMine could identify drugs that are inversely correlated with these adverse events, which may indicate a potential reduction in risk and represent a novel combinatorial strategy to mitigate lithium-related toxicity. […] (no concomitant use with lithium, IC<0, i.e., number of observed events<expected, FDR-corrected p<0.001). To understand how the risks differ across these therapeutic agents, AERSMine additionally allows comparative analyses across multiple drugs or therapeutic classes, which show the differential effects across the inversely correlated drugs.

| SMILES | number of adverse events significantly correlated with lithium use (of 4,180 adverse events in 22,575 patient reports, RR>=2, FDR p<0.001, IC>0) | safety signal IC for lithium-specific neurological adverse events |
| --- | --- | --- |
| [Li] [lithium] | 327 adverse events | – |
| CCCCc1nc(Cl)c(CO)n1Cc1ccc(-c2ccccc2-c2nn[nH]n2)cc1 [losartan] | – | < 0 |
| CCCCC(=O)N(Cc1ccc(-c2ccccc2-c2nnn[nH]2)cc1)[C@H](C(=O)O)C(C)C [valsartan] | – | < 0 |

Reference: patent US10769242B2, “System and method for data mining very large drugs and clinical effects databases” (Cincinnati Children's Hospital Medical Center, priority 2015, dated 2020)
